“And” between values parts separate entries of the source, which are not always exact repeats. Identical values can stand only once. Residues, ends and D or L forms follow the SMILES beside them. *: point of attachment. X1 = Cn1c2ccccc2c2ccnc(-c3ccc(/C=C/C(=O)*)cn3)c21
Legend:
PC-3 cells [1] = assay: Superoxide anion generation (ROS-ID Superoxide Detection Kit); format: cell-based, human; conditions: IC50,light 4 h, blue light 1 h
Protocol: The photocytotoxic effects of the complexes and metallopeptides were further elucidated by evaluating their ability to photogenerate ROS at the cellular level. PC-3 cells were treated with the compounds at the respective IC50,light and irradiated with blue light. Subsequently, ROS generation was measured using the 2′,7′-dichlorodihydrofluorescein diacetate (H2DCFDA) probe, which diffuses into cells and is oxidized by ROS to produce a green fluorescent signal. […] Nevertheless, to ascertain the potential contributions of other ROS to the photocytotoxic activity, the capacity of the compounds to undergo type I PDT processes, resulting in the production of superoxide anions (O2^•–), was examined using a specific fluorescent probe that emits an orange signal upon interaction with this radical. Ir-H, Ir-Me, and Ir-BN induced the most significant increase in O2^•– levels, with fold changes of 2.4, 3.5, and 3.4, respectively, compared to control cells. […] These findings highlight the diverse mechanisms of ROS generation employed by these compounds, in particular the Ir complexes, which may contribute to their overall photocytotoxic efficacy.
Figure 9 Intracellular ROS generation. PC-3 cells were treated with the indicated complexes and metallopeptides at their respective IC50,light for 4 h, followed by blue light irradiation for 1 h (460 nm, 24.1 J cm^–2). The elevation of general ROS (A) and superoxide anion (B) levels was determined with specific probes by flow cytometry. Bars represent the mean fold increase (±standard deviation) relative to control untreated cells from three independent experiments. * p < 0.05; ** p < 0.01, *** p < 0.001 compared to control cells.
A similar protocol was followed to evaluate superoxide production using the ROS-ID Superoxide Detection Kit (Enzo Life Sciences) according to the manufacturer’s instructions.

PC-3 cells [2] = assay: Mitochondrial membrane potential, JC-10 flow cytometry; format: cell-based, human; conditions: IC50,light 4 h, blue light 1 h, control 63.0 ± 10.6%
Protocol: Figure 12 Effect on mitochondria function. PC-3 cells were incubated with the indicated compounds at the corresponding IC50,light for 4 h at 37 °C and then exposed to blue light for 1 h. Cells incubated with the medium alone served as the negative control. (A) Confocal microscopy images of the cells. Nuclei were stained blue with Hoechst (λex: 350 nm; λem: 461 nm), and mitochondria were labeled with MitoTracker Red CMXRos (λex: 579 nm; λem: 599 nm). Insets show a 3× magnification of the cells. Scale bars represent 50 μm in 1× images and 20 μm in 3× images. (B) Flow cytometry analysis of the effect of the complexes on mitochondrial membrane potential. […] A decrease in the percentage of cells emitting orange fluorescence indicates a loss of MMP. p < 0.05 and ** p < 0.01 compared to control cells.
Flow cytometry analysis using the mitochondrial specific dye JC-10 confirmed this effect. The fluorescence of JC-10 undergoes a reversible change from green to orange as MMP increases, due to the formation of JC-10 aggregates within polarized mitochondria. This property allows for the simultaneous detection of healthy and depolarized mitochondria. In control cells, orange fluorescence emission corresponding to healthy mitochondria was detected in 63.0 ± 10.6% of cells (Figure 12B). […] Furthermore, the complexes’ ability to photocatalytically oxidize NADH, a primary electron donor for the mitochondrial electron transport chain, may contribute to the mitochondrial damage.
Flow cytometry assessment of the mitochondrial membrane depolarization: PC-3 cells were seeded on 12-well plates at a density of 100000 cells per well. 24 h later, cells were treated with the compounds as described above. Cells were subsequently harvested using trypsinization and incubated with JC-10 dye (Deltaclon) according to the manufacturer’s protocol. A Novocyte flow cytometer was employed to analyze the fluorescence emission of JC-10 in 10000 cells. Fluorescence was detected at 590 nm (FL2) to identify the percentage of cells with healthy mitochondria and at 529 nm (FL1) to determine the percentage of cells with depolarized mitochondria. Each compound was evaluated in three independent experiments, and the mean and standard deviation of the results were represented.

[3] = Emission and photophysical properties; format: physicochemical; conditions: H2O:DMSO (99:1), 25 °C, nitrogen atmosphere; for λem: λex 405 nm (Ir) or 450 nm (Ru)
Protocol: The emission spectra of the metal complexes in deoxygenated solutions of H2O:DMSO (99:1, v:v, 10^–5 M) were recorded at 25 °C, using λex of 405 nm for Ir-Me/Ir-H and λex of 450 nm for Ru-Me/Ru-H (Figure 3). […] Moreover, Ir-Me/Ru-Me featured lower emission intensities compared to Ir-H/Ru-H, respectively.
The excited state lifetimes (τ) and the photoluminescence quantum yields were also determined for the new metal complexes (Table 2). […] These values compare well with those of similar complexes and are compatible with a triplet nature for the emissive states. The photoluminescence quantum yields (ΦPL) of Ir(III)/Ru(II) were very low with values ranging from 1.1 to 4.13%.
All synthetic manipulations for Ir(III) and Ru(II) complexes were carried out under an atmosphere of dry, oxygen-free nitrogen using standard Schlenk techniques. The solvents were dried and distilled under a nitrogen atmosphere before use. Elemental analyses were performed with a Thermo Fisher Scientific EA Flash 2000 Elemental Microanalyzer. UV–vis absorption was measured in a Jasco V-750 UV–visible spectrophotometer. Fluorescence steady-state and lifetime measurements were performed in an FLS980 (Edinburgh Instruments) fluorimeter with Xenon Arc Lamp 450 W and TCSPC laser, respectively. Photoluminescence quantum yields was determined by using FLS980 (Edinburgh Instruments) with Xenon Arc Lamp 450 W and Red PMT Sphere as a detector. HR-ESI(+) mass spectra were recorded with an Agilent LC-MS system (1260 Infinity LC/6545 Q-TOF MS spectrometer) using dichloromethane (DCM) as a sample solvent and H2O (0.1% formic acid)/MeOH (0.1% formic acid) and 30:70 as the mobile phase. The experimental m/z values are expressed in Da and were compared with the m/z values for monoisotopic fragments. […] Chemical shift values (δ) are reported in ppm and coupling constants (J) in hertz. The splitting of proton resonances in the reported ^1H NMR data is defined as s = singlet, d = doublet, t = triplet, q = quartet, m = multiplet, and bs = broad singlet. 2D NMR spectra were recorded using standard pulse sequences. All NMR data processing was carried out using MestReNova version 10.0.2. […]
an integrating sphere. For the determination of the luminescence lifetime, the fluorescence decay was measured on a FLS980 spectrofluorometer equipped with a TSCPC laser (Ir(III) complexes: λ ex = 405 nm; Ru(II) complexes: λ ex = 450 nm) and a REDPMT detector. The F980 spectrometer operating software was used to collect and process luminescence lifetime data. […]
Photocatalytic oxidation of NADH. […]
A decrease in the absorption band with maxima at 338 nm was considered to confirm the photocatalytic oxidation of NADH into NAD+. […]
Both phases were then separated. Next, approximately 0.1 mg of the corresponding photosensitizer was dissolved in 1 mL of PBS-saturated n-octanol. Subsequently, 1 mL of octanol-saturated PBS was added, and the mixture was stirred vigorously at room temperature for 24 h. The two layers were separated carefully, and the absorbance of each layer was determined at the respective local maximum located around 425 nm. The log P oct/PBS values were determined as follows: […]

Compound | O2•– levels, fold change versus control cells (PC-3 cells [1]) | population of cells emitting JC-10 orange fluorescence (PC-3 cells [2]) | ΦPL [3] | τ [contribution (%)], first or only component [3] | τ [contribution (%)], second component [3] | λem [3]
CC(C)C[C@H](NC(=O)[C@H](CC(C)C)NC(=O)[C@H](Cc1c[nH]cn1)NC(=O)CNC(=O)[C@@H](NC(=O)[C@H](C)NC(=O)[C@H](Cc1c[nH]c2ccccc12)NC(=O)[C@H](CCC(N)=O)NC(=O)[C@H](CC(N)=O)NC(=O)CNC(=O)[C@H](CC(C)C)NC(=O)[C@H](CCCNC(=N)N)NC(=O)[C@H](CCC(N)=O)NC(=O)/C=C/c1ccc(-c2nccc3c4ccccc4n(C)c23)nc1)C(C)C)C(N)=O [Ir-BN] (X1-QRLGNQWAVGHLL-NH2) | 3.4 fold | 16.0 ± 9.5% |  |  |  | 
Cn1c2ccccc2c2ccnc(-c3ccc(/C=C/C(=O)O)cn3)c21.[Cl-].[Ir+3].[c-]1ccccc1-c1ccccn1.[c-]1ccccc1-c1ccccn1 [Ir-H] | 2.4 fold | 16.6 ± 9.2% | 4.13% | 23 ns and 23 [51] ns | 145 ns and 145 [49] ns | 651 nm
COC(=O)/C=C/c1ccc(-c2nccc3c4ccccc4n(C)c23)nc1.[Cl-].[Ir+3].[c-]1ccccc1-c1ccccn1.[c-]1ccccc1-c1ccccn1 [Ir-Me] | 3.5 fold | 21.2 ± 4.9% | 3.50% | 2 ns and 2 [20] ns | 93 ns and 93 [80] ns | 676 nm
Cn1c2ccccc2c2ccnc(-c3ccc(/C=C/C(=O)O)cn3)c21.[Cl-].[Cl-].[Ru+2].c1ccc(-c2ccccn2)nc1.c1ccc(-c2ccccn2)nc1 [Ru-H] |  | 28.2 ± 7.8% | 3.13% | 186 ns |  | 688 nm

Source: paper PMC11483813, “Bombesin-Targeted Delivery of β-Carboline-Based Ir(III) and Ru(II) Photosensitizers for a Selective Photodynamic Therapy of Prostate Cancer” (Inorganic Chemistry, 2024)
